Literature values as cited in US20110251396A1, “Enantiomeric compositions of cicletanine, alone and in combination with other agents, for the treatment of disease” (Gilead Sciences, Inc., priority 2003, published 2011).
Where two headings read alike, the source gives them in different places.

How the values were obtained:
[1] = test system: patients with type 2 diabetes
[2] = test system: T-type voltage-gated plasma membrane calcium channels
hypertensives = details: fell from 128; 150-200 mg/day cicletanine, over 12 months
Dahl salt-sensitive rats = details: cicletanine treatment
[3] = test system: patients whose blood pressure had not been normalized; details: cicletanine 50 and 100 mg per day added; all three groups

## CN(C)C(=N)N=C(N)N [Metformin]
[1]; diarrhea, nausea, abdominal pain, metallic taste
  patients with gastrointestinal side effects: 20% to 30%
[1]; first 6 months of treatment
  weight loss: 2 to 3 kg
[1]; monotherapy
  decrease of low-density lipoprotein (LDL) cholesterol levels: 10% to 15%
  decrease of plasma triglyceride levels: 10% to 15%

## CCCCNC(=O)NS(=O)(=O)c1ccc(C)cc1 [tolbutamide]
Single intravenous dose of tolbutamide alone, before cicletanine administration
  peak insulin response to tolbutamide: 29.2 mU/L

## COCC(=O)O[C@]1(CCN(C)CCCc2nc3ccccc3[nH]2)CCc2cc(F)ccc2[C@@H]1C(C)C [mibefradil]
[2]
  selectivity for blocking T-type over L-type calcium channels: 10 to 50 times

## Cc1ncc2c(c1O)COC2c1ccc(Cl)cc1 (racemic) [cicletanine]
hypertensives
  average triglyceride levels: 104 mg/dL
Dahl salt-sensitive rats
  high-density lipoprotein (HDL) cholesterol: increased
  low-density lipoprotein (LDL) cholesterol: significantly decreased
Following 7 days of cicletanine 100 mg per day
  hypoglycemic effect of tolbutamide: did not change
Single intravenous dose of tolbutamide following 7 days of cicletanine 100 mg per day
  peak insulin response to tolbutamide: 17.4 mU/L
[3]
  patients with normalized blood pressure: 50%
